This is an account of results in patent US8821891B2, “Live attenuated rotavirus vaccine for oral administration” (priority 2005, dated 2014).

A short description of series [1]: physchem.
For series [2] the following is noted: cited from earlier work.
The conditions of series [3]: standard acid-base titration curve, FIG. 1.

The structures appear in SMILES notation. Where two headings read alike, the source gives them in different places.

Consider `O=C(O)CCCCC(=O)O` [Adipic, adipic acid], for which the pKa (commonly the pH at which an ionisable group is half protonated) in series [1] was found to be 4.91.

The compound `O=C(O)CCCC(=O)O` [Glutaric, glutaric acid] registered a pKa in series [1] of 4.78.

Compound `O=C(O)/C=C\C(=O)O` [Maleic, maleic acid] came in with a pKa in series [1] of 4.07.

For the compound `O=C(O)CC(O)C(=O)O` (centres unmarked) [Malic, malic acid], the pKa in series [1] was 4.22.

Regarding `CCC(=O)O` [Propinic, propionic acid], the “Toxicity (LD50 oral, in rat)” value in series [2] (oral) is 2600 mg/kg.

Consider `O=C(O)CCC(=O)O` [Succinic, succinic acid], for which the pKa in series [1] stood at 4.9. For the same compound, the “Toxicity (LD50 oral, in rat)” value in series [2] (in vivo, po) is 2260 mg/kg.

Regarding `CC(=O)[O-].[Na+]` [sodium acetate], in series [3], the “useful antacid capacity between pH 4.0 and pH 7.0” value came out at 68.75%.

As to `O=C([O-])CCCCC(=O)[O-].[Na+].[Na+]` [sodium adipate], the “useful antacid capacity between pH 4.0 and pH 7.0” value in series [3] was found to be 72.50%.

In the case of `O=C([O-])CC(O)(CC(=O)[O-])C(=O)[O-].[Na+].[Na+].[Na+]` [sodium citrate], the “useful antacid capacity between pH 4.0 and pH 7.0” value in series [3] stood at 57.70%.

As to `O=C([O-])CC(O)C(=O)[O-].[Na+].[Na+]` (centres unmarked) [sodium malate], in series [3], the “useful antacid capacity between pH 4.0 and pH 7.0” value came to 41.25%.
